According to patent US20240246942A1, “KINASE INHIBITORS FOR THE TREATMENT OF NEURODEGENERATIVE DISEASES” (priority 2020, published 2024):
Where two headings read alike, the source gives them in different places.

Experiments:
Assay in all cases: biochemical
[1] = molecular target: T1, panel of 374 wild-type kinases (Homo sapiens, UniProt P06493)
T1 construct: purchased Reaction Biology Corporation

[2] = molecular target: T2, panel of 374 wild-type kinases (Homo sapiens, UniProt Q8IU85); settings: read-out: % Enzyme Activity (relative to DMSO controls), CAMK1d
T2 construct: purchased Reaction Biology Corporation

[3] = molecular target: T3, panel of 374 wild-type kinases (Homo sapiens, UniProt P08631); settings: read-out: % Enzyme Activity (relative to DMSO controls), HCK
T3 construct: purchased Reaction Biology Corporation

[4] = molecular target: T4, panel of 374 wild-type kinases (Homo sapiens, UniProt Q16816); settings: read-out: % Enzyme Activity (relative to DMSO controls), kinase PHKg1
T4 construct: purchased Reaction Biology Corporation

[5] = molecular target: T5, panel of 374 wild-type kinases (Homo sapiens, UniProt P51812); settings: read-out: % Enzyme Activity (relative to DMSO controls), kinase RSK2
T5 construct: purchased Reaction Biology Corporation

[6] = molecular target: T6, panel of 374 wild-type kinases (Homo sapiens, UniProt O75116); settings: read-out: % Enzyme Activity (relative to DMSO controls), kinase ROCK2
T6 construct: purchased Reaction Biology Corporation

[7] = molecular target: T7, panel of 374 wild-type kinases (Homo sapiens, UniProt Q86UX6); settings: read-out: % Enzyme Activity (relative to DMSO controls), kinase STK32C/YANK3
T7 construct: purchased Reaction Biology Corporation

[8] = molecular target: T8, panel of 374 wild-type kinases (Homo sapiens, UniProt Q05655); settings: read-out: % Enzyme Activity (relative to DMSO controls), kinase PKCd
T8 construct: purchased Reaction Biology Corporation

[9] = molecular target: T9, panel of 374 wild-type kinases (Homo sapiens, UniProt Q9Y463); settings: DYRK1B, read-out: % Enzyme Activity (relative to DMSO controls)
T9 construct: purchased Reaction Biology Corporation

[10] = molecular target: T10, panel of 374 wild-type kinases (Homo sapiens, UniProt Q13555); settings: read-out: % Enzyme Activity (relative to DMSO controls), CAMK2g
T10 construct: purchased Reaction Biology Corporation

[11] = molecular target: T11, panel of 374 wild-type kinases (Homo sapiens, UniProt Q6VAB6); settings: read-out: % Enzyme Activity (relative to DMSO controls), KSR2
T11 construct: purchased Reaction Biology Corporation
T11 sequence (Q6VAB6 1-950): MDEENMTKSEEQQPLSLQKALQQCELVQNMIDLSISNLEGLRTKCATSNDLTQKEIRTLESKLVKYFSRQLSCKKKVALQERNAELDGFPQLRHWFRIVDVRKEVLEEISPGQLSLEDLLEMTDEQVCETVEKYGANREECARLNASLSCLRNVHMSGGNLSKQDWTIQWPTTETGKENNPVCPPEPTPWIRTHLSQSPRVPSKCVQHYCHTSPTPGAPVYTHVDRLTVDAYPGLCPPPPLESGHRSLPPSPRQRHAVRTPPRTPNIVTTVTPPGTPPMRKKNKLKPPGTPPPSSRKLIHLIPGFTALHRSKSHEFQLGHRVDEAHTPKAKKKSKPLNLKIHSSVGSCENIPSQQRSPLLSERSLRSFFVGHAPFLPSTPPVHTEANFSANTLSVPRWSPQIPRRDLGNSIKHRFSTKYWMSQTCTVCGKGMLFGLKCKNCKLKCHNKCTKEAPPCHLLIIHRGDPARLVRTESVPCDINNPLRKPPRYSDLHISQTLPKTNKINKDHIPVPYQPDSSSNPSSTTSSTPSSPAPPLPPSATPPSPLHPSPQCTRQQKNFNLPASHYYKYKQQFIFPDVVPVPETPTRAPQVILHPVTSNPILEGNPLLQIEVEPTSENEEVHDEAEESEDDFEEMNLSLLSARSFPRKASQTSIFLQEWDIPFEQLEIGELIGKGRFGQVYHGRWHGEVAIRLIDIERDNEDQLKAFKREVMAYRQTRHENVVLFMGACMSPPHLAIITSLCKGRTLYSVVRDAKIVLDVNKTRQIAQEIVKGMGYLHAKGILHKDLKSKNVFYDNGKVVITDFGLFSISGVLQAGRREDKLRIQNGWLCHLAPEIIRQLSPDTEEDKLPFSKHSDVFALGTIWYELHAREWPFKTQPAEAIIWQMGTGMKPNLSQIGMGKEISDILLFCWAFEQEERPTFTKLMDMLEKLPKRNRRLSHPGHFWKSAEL

[12] = molecular target: T12, panel of 374 wild-type kinases (Homo sapiens, UniProt Q9NYY3); settings: read-out: % Enzyme Activity (relative to DMSO controls), kinase PLK2
T12 construct: purchased Reaction Biology Corporation

[13] = molecular target: T13, panel of 374 wild-type kinases (Homo sapiens, UniProt Q96KB5); settings: read-out: % Enzyme Activity (relative to DMSO controls), kinase PBK/TOPK
T13 construct: purchased Reaction Biology Corporation
T13 sequence (Q96KB5 1-322): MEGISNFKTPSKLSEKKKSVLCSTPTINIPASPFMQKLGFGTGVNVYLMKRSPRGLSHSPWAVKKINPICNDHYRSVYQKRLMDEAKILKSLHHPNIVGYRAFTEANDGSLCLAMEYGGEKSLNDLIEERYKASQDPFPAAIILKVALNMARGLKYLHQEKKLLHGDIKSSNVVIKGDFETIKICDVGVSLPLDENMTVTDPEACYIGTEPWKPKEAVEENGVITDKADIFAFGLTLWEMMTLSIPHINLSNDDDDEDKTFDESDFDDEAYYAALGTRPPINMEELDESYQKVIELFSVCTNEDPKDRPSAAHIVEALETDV

[14] = molecular target: T14, panel of 374 wild-type kinases (Homo sapiens, UniProt Q9HBH9); settings: read-out: % Enzyme Activity (relative to DMSO controls), MNK2
T14 construct: purchased Reaction Biology Corporation

[15] = read-out: % Enzyme Activity (relative to DMSO controls), CDK1/cyclin A
[16] = read-out: % Enzyme Activity (relative to DMSO controls), CDK1/cyclin B
[17] = read-out: % Enzyme Activity (relative to DMSO controls), CDK1/cyclin E

T7 sequence (Q86UX6 whole entry): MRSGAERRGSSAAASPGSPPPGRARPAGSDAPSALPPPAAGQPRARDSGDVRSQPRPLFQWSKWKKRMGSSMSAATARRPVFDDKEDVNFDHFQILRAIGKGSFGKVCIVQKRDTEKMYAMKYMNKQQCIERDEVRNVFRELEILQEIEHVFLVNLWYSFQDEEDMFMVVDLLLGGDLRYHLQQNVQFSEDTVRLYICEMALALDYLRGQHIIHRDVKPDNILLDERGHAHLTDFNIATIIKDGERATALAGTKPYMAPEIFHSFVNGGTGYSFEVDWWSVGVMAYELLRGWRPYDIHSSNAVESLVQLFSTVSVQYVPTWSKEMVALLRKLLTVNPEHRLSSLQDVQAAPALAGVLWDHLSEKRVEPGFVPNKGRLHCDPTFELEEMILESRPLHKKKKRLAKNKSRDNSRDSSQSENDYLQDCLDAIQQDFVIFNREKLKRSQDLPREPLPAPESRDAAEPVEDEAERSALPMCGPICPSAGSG
T8 sequence (Q05655 whole entry): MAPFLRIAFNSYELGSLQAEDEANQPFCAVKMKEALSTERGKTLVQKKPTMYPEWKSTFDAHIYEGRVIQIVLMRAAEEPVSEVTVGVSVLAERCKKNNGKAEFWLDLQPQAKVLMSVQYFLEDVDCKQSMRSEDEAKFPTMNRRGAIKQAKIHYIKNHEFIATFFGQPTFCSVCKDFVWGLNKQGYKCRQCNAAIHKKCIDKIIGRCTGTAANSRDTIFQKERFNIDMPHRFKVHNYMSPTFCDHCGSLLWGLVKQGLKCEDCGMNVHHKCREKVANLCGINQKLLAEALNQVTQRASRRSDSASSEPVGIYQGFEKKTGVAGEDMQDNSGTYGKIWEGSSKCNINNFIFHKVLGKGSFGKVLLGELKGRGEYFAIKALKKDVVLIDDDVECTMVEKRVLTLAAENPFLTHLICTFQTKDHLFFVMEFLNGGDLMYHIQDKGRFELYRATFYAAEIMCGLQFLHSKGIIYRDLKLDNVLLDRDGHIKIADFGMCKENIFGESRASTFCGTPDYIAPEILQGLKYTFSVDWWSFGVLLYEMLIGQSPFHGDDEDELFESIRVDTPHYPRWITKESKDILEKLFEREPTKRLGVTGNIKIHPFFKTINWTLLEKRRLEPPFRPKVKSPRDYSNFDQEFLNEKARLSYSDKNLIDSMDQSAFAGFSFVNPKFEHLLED
T14 sequence (Q9HBH9 whole entry): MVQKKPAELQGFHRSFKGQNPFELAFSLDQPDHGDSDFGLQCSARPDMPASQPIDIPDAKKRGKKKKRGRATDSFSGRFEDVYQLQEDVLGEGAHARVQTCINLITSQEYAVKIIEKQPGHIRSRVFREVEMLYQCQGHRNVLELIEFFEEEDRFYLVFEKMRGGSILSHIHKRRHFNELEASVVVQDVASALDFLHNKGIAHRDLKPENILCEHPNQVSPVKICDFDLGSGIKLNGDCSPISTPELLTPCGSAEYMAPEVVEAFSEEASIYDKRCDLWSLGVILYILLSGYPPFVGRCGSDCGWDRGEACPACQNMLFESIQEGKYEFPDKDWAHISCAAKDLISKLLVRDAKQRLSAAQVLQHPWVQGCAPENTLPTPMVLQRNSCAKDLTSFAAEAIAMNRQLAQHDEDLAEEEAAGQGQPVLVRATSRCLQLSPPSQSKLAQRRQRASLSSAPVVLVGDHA
T9 sequence (Q9Y463 whole entry): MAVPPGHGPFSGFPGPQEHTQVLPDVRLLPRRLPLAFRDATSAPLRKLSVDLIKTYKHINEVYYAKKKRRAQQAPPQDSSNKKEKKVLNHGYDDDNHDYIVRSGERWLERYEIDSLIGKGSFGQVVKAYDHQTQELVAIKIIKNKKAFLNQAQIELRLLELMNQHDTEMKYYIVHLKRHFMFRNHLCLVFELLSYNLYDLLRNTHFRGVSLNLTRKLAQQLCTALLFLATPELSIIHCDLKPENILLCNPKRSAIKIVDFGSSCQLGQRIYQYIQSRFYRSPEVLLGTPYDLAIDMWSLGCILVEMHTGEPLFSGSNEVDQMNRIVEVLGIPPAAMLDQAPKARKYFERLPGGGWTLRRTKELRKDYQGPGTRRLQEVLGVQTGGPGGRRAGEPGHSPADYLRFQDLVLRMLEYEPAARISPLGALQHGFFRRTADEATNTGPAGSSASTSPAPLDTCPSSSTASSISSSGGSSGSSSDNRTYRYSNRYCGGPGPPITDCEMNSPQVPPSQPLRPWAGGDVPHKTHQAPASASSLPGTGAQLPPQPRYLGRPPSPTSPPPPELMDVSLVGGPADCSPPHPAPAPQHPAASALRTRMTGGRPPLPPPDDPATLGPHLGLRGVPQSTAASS
T3 sequence (P08631 whole entry): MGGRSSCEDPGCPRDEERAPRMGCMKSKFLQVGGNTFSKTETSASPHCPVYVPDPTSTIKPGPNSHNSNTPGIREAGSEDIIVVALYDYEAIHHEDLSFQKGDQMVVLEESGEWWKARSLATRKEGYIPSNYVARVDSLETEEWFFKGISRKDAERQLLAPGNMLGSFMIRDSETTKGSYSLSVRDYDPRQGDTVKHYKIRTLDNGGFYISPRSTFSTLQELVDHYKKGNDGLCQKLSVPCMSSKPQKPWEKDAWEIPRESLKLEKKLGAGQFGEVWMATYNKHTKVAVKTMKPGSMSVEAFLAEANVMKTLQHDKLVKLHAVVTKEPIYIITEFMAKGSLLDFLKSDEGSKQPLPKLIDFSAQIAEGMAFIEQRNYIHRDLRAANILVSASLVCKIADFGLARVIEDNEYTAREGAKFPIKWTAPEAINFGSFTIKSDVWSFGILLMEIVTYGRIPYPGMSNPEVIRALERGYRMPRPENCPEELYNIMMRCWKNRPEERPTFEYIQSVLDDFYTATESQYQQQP
T5 sequence (P51812 whole entry): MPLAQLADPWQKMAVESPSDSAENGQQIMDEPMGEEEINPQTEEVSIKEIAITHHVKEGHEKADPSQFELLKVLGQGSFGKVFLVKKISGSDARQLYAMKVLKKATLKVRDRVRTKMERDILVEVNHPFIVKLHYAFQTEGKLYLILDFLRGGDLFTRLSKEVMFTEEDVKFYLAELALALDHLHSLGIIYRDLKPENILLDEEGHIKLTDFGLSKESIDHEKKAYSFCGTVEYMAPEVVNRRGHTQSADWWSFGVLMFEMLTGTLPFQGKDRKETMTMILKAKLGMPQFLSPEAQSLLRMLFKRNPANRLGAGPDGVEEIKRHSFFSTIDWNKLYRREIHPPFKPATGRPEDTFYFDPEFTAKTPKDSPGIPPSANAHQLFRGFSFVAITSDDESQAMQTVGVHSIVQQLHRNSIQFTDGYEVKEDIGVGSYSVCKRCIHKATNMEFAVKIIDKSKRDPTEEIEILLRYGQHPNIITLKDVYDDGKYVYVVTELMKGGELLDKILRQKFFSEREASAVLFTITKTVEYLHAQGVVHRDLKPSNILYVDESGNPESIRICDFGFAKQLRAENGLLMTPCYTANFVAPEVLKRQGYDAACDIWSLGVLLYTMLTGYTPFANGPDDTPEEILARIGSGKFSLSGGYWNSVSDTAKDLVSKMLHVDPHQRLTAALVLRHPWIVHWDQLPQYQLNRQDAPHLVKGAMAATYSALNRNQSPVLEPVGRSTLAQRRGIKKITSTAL
T2 sequence (Q8IU85 whole entry): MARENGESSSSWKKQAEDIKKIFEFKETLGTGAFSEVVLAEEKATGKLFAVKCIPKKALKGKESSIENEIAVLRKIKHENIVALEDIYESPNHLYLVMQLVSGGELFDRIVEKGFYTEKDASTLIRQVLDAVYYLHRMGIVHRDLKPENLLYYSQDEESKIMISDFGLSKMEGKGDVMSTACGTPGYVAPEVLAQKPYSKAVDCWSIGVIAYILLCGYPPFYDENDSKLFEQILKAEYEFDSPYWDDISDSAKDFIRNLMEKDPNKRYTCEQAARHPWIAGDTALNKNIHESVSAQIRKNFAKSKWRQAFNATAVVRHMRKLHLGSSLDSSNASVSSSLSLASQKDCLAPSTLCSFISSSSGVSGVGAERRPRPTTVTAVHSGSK
T12 sequence (Q9NYY3 whole entry): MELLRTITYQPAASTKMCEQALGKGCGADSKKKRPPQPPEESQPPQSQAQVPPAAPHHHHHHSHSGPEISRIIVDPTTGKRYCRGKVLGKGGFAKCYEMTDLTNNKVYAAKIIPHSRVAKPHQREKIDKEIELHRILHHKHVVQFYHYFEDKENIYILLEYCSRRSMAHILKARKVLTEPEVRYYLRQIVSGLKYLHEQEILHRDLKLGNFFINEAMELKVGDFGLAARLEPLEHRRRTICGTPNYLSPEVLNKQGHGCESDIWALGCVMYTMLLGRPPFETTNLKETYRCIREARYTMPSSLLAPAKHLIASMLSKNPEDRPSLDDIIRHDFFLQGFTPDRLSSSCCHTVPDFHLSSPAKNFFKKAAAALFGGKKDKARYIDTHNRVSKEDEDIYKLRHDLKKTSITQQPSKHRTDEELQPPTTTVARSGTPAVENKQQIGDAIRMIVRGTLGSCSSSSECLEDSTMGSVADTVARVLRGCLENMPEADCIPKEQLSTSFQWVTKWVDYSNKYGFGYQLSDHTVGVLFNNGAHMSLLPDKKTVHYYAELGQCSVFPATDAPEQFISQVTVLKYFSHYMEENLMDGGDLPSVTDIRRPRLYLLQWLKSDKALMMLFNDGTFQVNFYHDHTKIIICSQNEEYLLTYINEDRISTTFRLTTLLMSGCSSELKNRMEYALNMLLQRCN
T4 sequence (Q16816 whole entry): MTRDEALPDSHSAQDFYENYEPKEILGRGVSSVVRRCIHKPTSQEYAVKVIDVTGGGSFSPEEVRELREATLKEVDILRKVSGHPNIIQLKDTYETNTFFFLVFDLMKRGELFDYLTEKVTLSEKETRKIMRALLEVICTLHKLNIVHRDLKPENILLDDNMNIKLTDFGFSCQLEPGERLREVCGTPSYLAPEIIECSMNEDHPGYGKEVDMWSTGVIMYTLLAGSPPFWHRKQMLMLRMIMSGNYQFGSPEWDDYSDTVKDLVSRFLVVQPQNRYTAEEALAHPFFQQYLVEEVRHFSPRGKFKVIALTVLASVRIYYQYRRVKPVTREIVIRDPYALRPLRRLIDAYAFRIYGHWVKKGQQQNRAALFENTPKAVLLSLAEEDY

What does the source list for `O=C(Nc1cnn(-c2csc(C(=O)NC3COC3)c2)c1)Nc1ccccc1Cl` [Compound 17, 4-(4-(3-(2-chlorophenyl)ureido)-1H-pyrazol-1-yl)-N-(oxetan-3-yl)thiophene-2-carboxamide]?
remaining activity at 5 µM [1, 15]: 95.5%; remaining activity at 5 µM [1, 16]: 92.6%; remaining activity at 5 µM [1, 17]: 94.7%; remaining activity at 5 µM [2]: 104%; remaining activity at 5 µM [3]: 94%; remaining activity at 5 µM [4]: 102%; remaining activity at 5 µM [5]: 101%; remaining activity at 5 µM [6]: 100%; remaining activity at 5 µM [7]: 113%; remaining activity at 5 µM [8]: 112%; remaining activity at 5 µM [9]: 87%; remaining activity at 5 µM [10]: 96.4%; remaining activity at 5 µM [11]: 107%; remaining activity at 5 µM [12]: 86%; remaining activity at 5 µM [13]: 115%; remaining activity at 5 µM [14]: 99.3%

`O=C(Nc1cnn(-c2csc(C(=O)NC3COC3)c2)c1)Nc1c(F)cccc1Cl` [Compound 25, 4-(4-(3-(2-chloro-6-fluorophenyl)ureido)-1H-pyrazol-1-yl)-N-(oxetan-3-yl)thiophene-2-carboxamide] was tested. Which remaining activity at 5 µM [1, 15] did it give?
Its remaining activity at 5 µM is 86.3%.

And the remaining activity at 5 µM [1, 16]?
Its remaining activity at 5 µM is 105%.

And the remaining activity at 5 µM [1, 17]?
Its remaining activity at 5 µM is 98.4%.

What about the remaining activity at 5 µM [2] of the same molecule?
The remaining activity at 5 µM was 99.6%.

What about the remaining activity at 5 µM [3] of the same molecule?
Its remaining activity at 5 µM is 91.3%.

And the remaining activity at 5 µM [4]?
The remaining activity at 5 µM was 91.2%.

And the remaining activity at 5 µM [5]?
Its remaining activity at 5 µM is 79.9%.

And the remaining activity at 5 µM [6]?
Its remaining activity at 5 µM is 107%.

And the remaining activity at 5 µM [7]?
Its remaining activity at 5 µM is 90.7%.

And the remaining activity at 5 µM [8]?
The remaining activity at 5 µM was 101%.

And the remaining activity at 5 µM [9]?
The remaining activity at 5 µM was 82.8%.

And the remaining activity at 5 µM [10]?
The remaining activity at 5 µM was 90.1%.

What about the remaining activity at 5 µM [11] of the same molecule?
Its remaining activity at 5 µM is 92.7%.

And the remaining activity at 5 µM [12]?
Its remaining activity at 5 µM is 100%.

What about the remaining activity at 5 µM [13] of the same molecule?
The remaining activity at 5 µM was 98.2%.

And the remaining activity at 5 µM [14]?
Its remaining activity at 5 µM is 90.8%.

What does the source list for `Cc1sc(C(=O)NC2COC2)cc1-n1cc(NC(=O)Nc2c(F)cccc2Cl)cn1` [Compound 27, 4-(4-(3-(2-chloro-6-fluorophenyl)ureido)-1H-pyrazol-1-yl)-5-methyl-N-(oxetan-3-yl)thiophene-2-carboxamide]?
remaining activity at 10 µM [1, 15]: 105%; remaining activity at 10 µM [1, 16]: 92.7%; remaining activity at 10 µM [1, 17]: 100%; remaining activity at 10 µM ([2]; 10 uM): 105%; remaining activity at 10 µM ([3]; 10 uM): 95%; remaining activity at 10 µM ([4]; 10 uM): 84%; remaining activity at 10 µM ([5]; 10 uM): 73%; remaining activity at 10 µM ([6]; 10 uM): 93.6%; remaining activity at 10 µM ([7]; 10 uM): 112%; remaining activity at 10 µM ([8]; 10 uM): 98%; remaining activity at 10 µM ([9]; 10 uM): 105%; remaining activity at 10 µM ([10]; 10 uM): 102%; remaining activity at 10 µM ([11]; 10 uM): 99.2%; remaining activity at 10 µM ([12]; 10 uM): 95.2%; remaining activity at 10 µM ([13]; 10 uM): 88.5%; remaining activity at 10 µM ([14]; 10 uM): 83.4%
